Key:
3T3-L1 adipocytes = assay: Intracellular Ca2+ in cultured adipocytes (fura-2); type: cell-based, mouse; conditions: H2O2 100 nmol/L, 4 hours; p<0.001
Protocol: 3T3-L1 preadipocytes were incubated at a density of 8000 cells/cm^2 (10 cm^2 dish) and grown in Dulbecco's modified Eagle's medium (DMEM) containing 10% FBS and antibiotics (adipocyte medium) at 37° C. in 5% CO2 in air. Confluent preadipocytes were induced to differentiate with a standard differentiation medium consisting of DMEM-F10 (1:1, vol/vol) medium supplemented with 1% FBS, 1 μM dexamethasone, IBMX (0.5 mM) and antibiotics (1% Penicillin-Streptomycin). Preadipocytes were maintained in this differentiation medium for 3 days and subsequently cultured in adipocyte medium. Cultures were re-fed every 2-3 days to allow 90% of cells to reach full differentiation before conducting chemical treatment. Chemicals were freshly diluted in adipocyte medium before treatment. Cells were washed with fresh adipocyte medium, re-fed with medium containing the different treatments, and incubated at 37° C. in 5% CO2 in air before analysis. Cell viability was measured via trypan blue exclusion. [Ca^2+]i in adipocytes was measured using a fura-2 dual-wavelength fluorescence imaging system. Cells were plated in 35-mm dishes […]). […] Cells were loaded with fura-2 acetoxymethyl ester (fura-2 AM) (10 μmol/L) in the same buffer for 2 h at 37° C. in a dark incubator with 5% CO2. To remove extracellular dye, cells were rinsed with HBSS three times and then post-incubated at room temperature for an additional 1 h for complete hydrolysis of cytoplasmic fura-2 AM. The dishes with dye-loaded cells were mounted on the stage of Nikon TMS-F fluorescence inverted microscope with a Cohu model 4915 charge-coupled device (CCD) camera. Fluorescent images were captured alternatively at excitation wavelengths of 340 and 380 nm with an emission wavelength of 520 nm. After establishment of a stable baseline, the responses to 1α, 25-(OH)2-D3 was determined. [Ca^2+]i was calculated using a ratio equation as described previously. Each analysis evaluated responses of 5 representative whole cells. Images were analyzed with […]2 version 4.62 imaging software (Intracellular Imaging, Cincinnati, Ohio). […]

fatty acid synthase = assay: Fatty acid synthase gene expression in adipocytes; type: cell-based, murine; conditions: p<0.05
From the text: The adipose tissue-skeletal muscle endocrine axis may play a potential role in regulating metabolic energy partitioning. […] However, the effect of leucine and calcium, in regulating this process is unclear. Accordingly, present study was designed to investigate the effect of leucine, calcitriol and calcium on energy metabolism in murine adipocytes and muscle cells.

[1] = system: macrophage inhibitory factor (MIF); assay: MIF expression in human adipocytes; type: cell-based; conditions: calcitriol 10 nmol/L, 48 hours; p=0.001
From the text: Cell culture: Human preadipocytes used in this study were supplied by Zen-Bio (Research Triangle, N.C.). Preadipocytes were inoculated in DMEM/Ham's F-10 medium (DMEM-F10) (1:1, vol/vol) containing 10% FBS, 15 mmol/L HEPES, and antibiotics at a density of 30,000 cells/cm2. Confluent monolayers of preadipocytes were induced to differentiate with a standard differentiation medium consisting of DMEM-F10 (1:1, vol/vol) medium supplemented with 15 mmol/L HEPES, 3% FBS, 33 μmol/L biotin, 17 μmol/L pantothenate, 100 nmol/L insulin, […] methylisobutylxanthine, 1 μmol/L dexamethasone, 1 μmol/L BRL49653, and antibiotics. […]
Cells were washed with fresh adipocyte medium, re-fed with medium containing the indicated treatments, and incubated at 37° C. in 5% CO2 for 48 hours before analysis. Cell viability was measured via trypan blue exclusion.
Adipocyte and muscle 18s, CD14, TNFα, MIP, M-CSF, IL-6 and MCP-1 were quantitatively measured using a Smart Cycler Real Time PCR System (Cepheid, Sunnyvale, Calif.) with a TaqMan 1000 Core Reagent Kit (Applied Biosystems, Branchburg, N.J.). […] Reactions of quantitative RT-PCR for standards and unknown samples were also performed according to the instructions of Smart Cycler System (Cepheid, Sunnyvale, Calif.) and TaqMan Real Time PCR Core Kit (Applied Biosystems, Branchburg, N.J.). […]

C2C12 myotubes = assay: Fatty acid oxidation (palmitate oxidation) in muscle cells; type: cell-based, murine; conditions: calcitriol 10 nM, 48 hours; p<0.05
Protocol: FIG. 53: Fatty acid oxidation was determined via palmitate oxidation. […] Data are corrected for DNA content. Values are presented as mean±SEM, n=6. Means with different letter differ with p<0.05.
The adipose tissue-skeletal muscle endocrine axis may play a potential role in regulating metabolic energy partitioning. […] While both calcium and dairy accelerate adipose tissue loss, dairy exerts a substantially greater effect and exerts a protective effect on lean tissue during hypocaloric diets. We have shown that dietary calcium modulation of adiposity is mediated, in part, by suppression of calcitriol, while the additional effect of dairy is mediated by additional bioactive components; these include the high concentration of leucine, a key factor in the regulation of muscle protein turnover. […] However, the effect of leucine and calcium, in regulating this process is unclear. Accordingly, present study was designed to investigate the effect of leucine, calcitriol and calcium on energy metabolism in murine adipocytes and muscle cells. Leucine induced a 41% increase in fatty acid oxidation in C2C12 muscle cells (p<0.001) and decreased fatty acid synthase gene expression by 66% (p<0.001) in 3T3-L1 adipocytes. Calcitriol decreased muscle cell fatty acid oxidation by 17% (p<0.05) and increased adipocyte FAS gene expression by 3-fold (p<0.05).

Compound	increase in [Ca2+]i (3T3-L1 adipocytes) [fold]	increase in adipocyte FAS gene expression (fatty acid synthase) [fold]	increase in MIF expression [1] [%]	decrease in muscle cell fatty acid oxidation (C2C12 myotubes) [%]
OO [H2O2, hydrogen peroxide]	5			
C=C1/C(=C\C=C2/CCC[C@]3(C)[C@@H]([C@H](C)CCCC(C)(C)O)CC[C@@H]23)C[C@@H](O)C[C@@H]1O [calcitriol, 1,25-(OH)2-D3]		3	59	17
